Source: US20220380319A1 (Bial - R&D Investments, S.A., priority 2019, published 2022)
In brackets after ≈: the same amount, converted by molar mass. One block for each compound: values may come before it.

Assays:
[1] = molecular target: T1, acid ceramidase (Homo sapiens, UniProt Q13510); test: Acid ceramidase inhibition, biochemical fluorescent assay with cell lysates overexpressing acid ceramidase, substrate Rbm14-12; details: substrate Rbm14-12 6.3 μM, pH 4.5, 1 hr preincubation at RT
T1 construct: Cell lysates overexpressing acid ceramidase were used as the enzyme source; expressed in transfected cells
T1 sequence (Q13510 22-395): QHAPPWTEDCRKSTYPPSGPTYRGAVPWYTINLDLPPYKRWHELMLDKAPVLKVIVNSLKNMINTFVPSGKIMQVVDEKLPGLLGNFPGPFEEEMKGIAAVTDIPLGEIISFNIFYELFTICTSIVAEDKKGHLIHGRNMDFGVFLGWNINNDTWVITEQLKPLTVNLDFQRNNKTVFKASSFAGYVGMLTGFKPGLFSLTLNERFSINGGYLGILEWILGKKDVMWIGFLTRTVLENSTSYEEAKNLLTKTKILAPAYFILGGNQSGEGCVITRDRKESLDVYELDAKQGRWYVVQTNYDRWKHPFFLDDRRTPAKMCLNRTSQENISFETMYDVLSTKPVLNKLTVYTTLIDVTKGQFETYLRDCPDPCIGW
Protocol: The ability of exemplary compounds to inhibit acid ceramidase was measured.
Cell lysates overexpressing acid ceramidase were used as the enzyme source for compound potency determination in a biochemical fluorescent assay. Briefly, compounds were preincubated with 10 μg protein of cell lysates in a dose-response manner for 1 hr at RT in the assay buffer containing 25 mM NaAC and 100 mM NaCl, pH 4.5. The reaction was initiated by the addition of substrate Rbm14-12 at a final concentration of 6.3 μM. The reaction was run at RT for 1 hr before it was stopped by the addition of the stopping buffer containing 20% methanol (v/v), 1 mg/ml NaIO4, 0.1 M glycine, pH 10.6. The samples were incubated with the stopping buffer at RT for 1 hr to allow the fluorescent product to be formed. Finally, the plate was read with SpectraMax i3 plate reader (Molecular Devices) at ex360 nm and em446 nm. Data were collected and used to determine the IC50 values of compounds by curve fitting to the four-parameter inhibition equation.

[2] = Compound solubility in water

SMILES: COc1ccnc2c1ncn2C(=O)NCCc1ccccc1 [Example 50, 7-Methoxy-N-phenethyl-3H-imidazo[4,5-b]pyridine-3-carboxamide]
IC50 [1]: 200 to 1000 nM | solubility [2]: 9.5 µg/mL (≈ 32.1 µM)

SMILES: CCCCNC(=O)n1cnc2c(C3CCN(C)CC3)c(C(F)(F)F)ccc21 [Example 56, N-Butyl-4-(1-methylpiperidin-4-yl)-5-(trifluoromethyl)-1H-benzo[d]imidazole-1-carboxamide]
IC50 [1]: > 1000 nM | solubility [2]: 28.1 µg/mL (≈ 73.5 µM)

SMILES: CCCCNC(=O)n1cnc2c(C3CCN(C)CC3)cc(OC)cc21 [Example 58, N-Butyl-6-methoxy-4-(1-methylpiperidin-4-yl)-1H-benzo[d]imidazole-1-carboxamide]
IC50 [1]: 200 to 1000 nM | solubility [2]: 28.1 µg/mL (≈ 81.6 µM)

SMILES: O=C(NCCc1ccccc1)n1cnc2c(F)cccc21 [Example 64, 4-Fluoro-N-phenethyl-1H-benzo[d]imidazole-1-carboxamide]
IC50 [1]: < 200 nM | solubility [2]: 3.6 µg/mL (≈ 12.7 µM)

SMILES: O=C(NCCc1ccccc1)n1cnc2ccc(C(F)(F)F)nc21 [Example 66a, N-Phenethyl-5-(trifluoromethyl)-3H-imidazo[4,5-b]pyridine-3-carboxamide]
IC50 [1]: < 200 nM | solubility [2]: 6 µg/mL (≈ 17.9 µM)

SMILES: O=C(NCCc1ccccc1)n1cnc2nc(C(F)(F)F)ccc21 [Example 66b, N-phenethyl-5-(trifluoromethyl)-1H-imidazo[4,5-b]pyridine-1-carboxamide]
IC50 [1]: < 200 nM | solubility [2]: 12.9 µg/mL (≈ 38.6 µM)

SMILES: CCCCNC(=O)n1cnc2cc(F)ccc21 [Example 67, N-Butyl-5-fluoro-1H-benzo[d]imidazole-1-carboxamide]
IC50 [1]: < 200 nM | solubility [2]: 22.5 µg/mL (≈ 95.6 µM)

SMILES: CCCCNC(=O)n1cnc2c(F)cccc21 [Example 68, N-Butyl-4-fluoro-1H-benzo[d]imidazole-1-carboxamide]
IC50 [1]: < 200 nM | solubility [2]: 20.6 µg/mL (≈ 87.6 µM)

SMILES: CCCCNC(=O)n1cnc2ccc(F)cc21 [Example 69, N-Butyl-6-fluoro-1H-benzo[d]imidazole-1-carboxamide]
IC50 [1]: 200 to 1000 nM | solubility [2]: 20.2 µg/mL (≈ 85.9 µM)

SMILES: CCCCNC(=O)n1cnc2ccc(OC(F)(F)F)cc21 [Example 70a, N-Butyl-6-(trifluoromethoxy)-1H-benzo[d]imidazole-1-carboxamide]
IC50 [1]: < 200 nM | solubility [2]: 9.3 µg/mL (≈ 30.9 µM)

SMILES: CCCCNC(=O)n1cnc2cc(OC(F)(F)F)ccc21 [Example 70b, N-butyl-5-(trifluoromethoxy)-1H-benzo[d]imidazole-1-carboxamide]
IC50 [1]: < 200 nM | solubility [2]: 9.6 µg/mL (≈ 31.9 µM)

SMILES: COc1cccc2c1ncn2C(=O)NCCOc1ccccc1 [Example 71, 4-Methoxy-N-(2-phenoxyethyl)-1H-benzo[d]imidazole-1-carboxamide]
IC50 [1]: < 200 nM | solubility [2]: 9.1 µg/mL (≈ 29.2 µM)

SMILES: O=C(NCCOc1ccccc1)n1cnc2c(C(F)(F)F)cccc21 [Example 72, N-(2-Phenoxyethyl)-4-(trifluoromethyl)-1H-benzo[d]imidazole-1-carboxamide]
IC50 [1]: < 200 nM | solubility [2]: 2 µg/mL (≈ 5.73 µM)

SMILES: O=C(NCCOc1ccccc1)n1cnc2c(F)cccc21 [Example 73, 4-Fluoro-N-(2-phenoxyethyl)-1H-benzo[d]imidazole-1-carboxamide]
IC50 [1]: < 200 nM | solubility [2]: 2.7 µg/mL (≈ 9.02 µM)

SMILES: N#Cc1cccc2c1ncn2C(=O)NCCOc1ccccc1 [Example 74, 4-Cyano-N-(2-phenoxyethyl)-1H-benzo[d]imidazole-1-carboxamide]
IC50 [1]: < 200 nM | solubility [2]: 5.9 µg/mL (≈ 19.3 µM)

SMILES: COc1c(-c2cncnc2)ccc2c1ncn2C(=O)NCC(C)C [Example 75, N-isoButyl-4-methoxy-5-(pyrimidin-5-yl)-1H-benzo[d]imidazole-1-carboxamide]
IC50 [1]: 200 to 1000 nM | solubility [2]: 27 µg/mL (≈ 83 µM)

SMILES: CC(C)CNC(=O)n1cnc2c(C(F)(F)F)c(-c3cncnc3)ccc21 [Example 76, N-iso-Butyl-5-(pyrimidin-5-yl)-4-(trifluoromethyl)-1H-benzo[d]imidazole-1-carboxamide]
IC50 [1]: < 200 nM | solubility [2]: 10 µg/mL (≈ 27.5 µM)

SMILES: CC(C)CNC(=O)n1cnc2cc(-c3cncnc3)c(C(F)(F)F)cc21 [Example 77a, N-iso-Butyl-5-(pyrimidin-5-yl)-6-(trifluoromethyl)-1H-benzo[d]imidazole-1-carboxamide]
IC50 [1]: < 200 nM | solubility [2]: 14.5 µg/mL (≈ 39.9 µM)

SMILES: CC(C)CNC(=O)n1cnc2cc(C(F)(F)F)c(-c3cncnc3)cc21 [Example 77b, N-iso-butyl-6-(pyrimidin-5-yl)-5-(trifluoromethyl)-1H-benzo[d]imidazole-1-carboxamide]
IC50 [1]: < 200 nM | solubility [2]: 7.4 µg/mL (≈ 20.4 µM)

SMILES: CN1CCN(CCNC(=O)n2cnc3cc(C(F)(F)F)ccc32)CC1 [Example 78, N-(2-(4-Methylpiperazin-1-yl)ethyl)-5-(trifluoromethyl)-1H-benzo[d]imidazole-1-carboxamide]
IC50 [1]: > 1000 nM | solubility [2]: 32.7 µg/mL (≈ 92 µM)

Next, values leading:

IC50 [1]: < 200 nM | solubility [2]: 12.6 µg/mL (≈ 44.2 µM)
SMILES: CCCCNC(=O)n1cnc2ccc(C(F)(F)F)cc21 [Example 49b, N-butyl-6-(trifluoromethyl)-1H-benzo[d]imidazole-1-carboxamide]

IC50 [1]: < 200 nM | solubility [2]: 7.2 µg/mL (≈ 29.1 µM)
SMILES: CCCCNC(=O)n1cnc2cc(OC)ccc21 [Example 51a, N-Butyl-5-methoxy-1H-benzo[d]imidazole-1-carboxamide]

IC50 [1]: < 200 nM | solubility [2]: 8.5 µg/mL (≈ 34.4 µM)
SMILES: CCCCNC(=O)n1cnc2ccc(OC)cc21 [Example 51b, N-butyl-6-methoxy-1H-benzo[d]imidazole-1-carboxamide]

IC50 [1]: < 200 nM | solubility [2]: 23.2 µg/mL (≈ 93.8 µM)
SMILES: CCCCNC(=O)n1cnc2c(OC)cccc21 [Example 52, N-Butyl-4-methoxy-1H-benzo[d]imidazole-1-carboxamide]

IC50 [1]: < 200 nM | solubility [2]: 4.7 µg/mL (≈ 14.1 µM)
SMILES: O=C(NCCc1ccccc1)n1cnc2ncc(C(F)(F)F)cc21 [Example 53, N-Phenethyl-6-(trifluoromethyl)-1H-imidazo[4,5-b]pyridine-1-carboxamide]

IC50 [1]: < 200 nM | solubility [2]: 22.7 µg/mL (≈ 52.7 µM)
SMILES: CN1CCC(c2cc(C(F)(F)F)cc3c2ncn3C(=O)NCCc2ccccc2)CC1 [Example 54, 4-(1-Methylpiperidin-4-yl)-N-phenethyl-6-(trifluoromethyl)-1H-benzo[d]imidazole-1-carboxamide]

IC50 [1]: < 200 nM | solubility [2]: 13 µg/mL (≈ 30.2 µM)
SMILES: CN1CCC(c2c(C(F)(F)F)ccc3c2ncn3C(=O)NCCc2ccccc2)CC1 [Example 55, 4-(1-Methylpiperidin-4-yl)-N-phenethyl-5-(trifluoromethyl)-1H-benzo[d]imidazole-1-carboxamide]

IC50 [1]: < 200 nM | solubility [2]: 24.1 µg/mL (≈ 63 µM)
SMILES: CCCCNC(=O)n1cnc2c(C3CCN(C)CC3)cc(C(F)(F)F)cc21 [Example 57, N-Butyl-4-(1-methylpiperidin-4-yl)-6-(trifluoromethyl)-1H-benzo[d]imidazole-1-carboxamide]

IC50 [1]: < 200 nM | solubility [2]: 24.6 µg/mL (≈ 87.8 µM)
SMILES: O=C(NCCCc1ccccc1)n1cnc2ncccc21 [Example 59, N-(3-Phenylpropyl)-1H-imidazo[4,5-b]pyridine-1-carboxamide]

IC50 [1]: < 200 nM | solubility [2]: 1 µg/mL (≈ 3.08 µM)
SMILES: COc1nc2ncccc2n1C(=O)NCCCCc1ccccc1 [Example 61, 2-Methoxy-N-(4-phenylbutyl)-1H-imidazo[4,5-b]pyridine-1-carboxamide]

IC50 [1]: < 200 nM | solubility [2]: 26.6 µg/mL (≈ 94.2 µM)
SMILES: O=C(NCCOc1ccccc1)n1cnc2ncccc21 [Example 62, N-(2-Phenoxyethyl)-1H-imidazo[4,5-b]pyridine-1-carboxamide]

IC50 [1]: < 200 nM | solubility [2]: 2.6 µg/mL (≈ 9.18 µM)
SMILES: O=C(NCCc1ccccc1)n1cnc2cc(F)ccc21 [Example 63, 5-Fluoro-N-phenethyl-1H-benzo[d]imidazole-1-carboxamide]
